In this assay the test system is Mycobacterium tuberculosis H37Rv growth inhibition, no glycerol. Description: Confirmatory growth inhibition assay, Mycobacterium tuberculosis H37Rv, absence of glycerol (AID 449764).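 As to all read-outs here: growth read after 7 days of incubation.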 Conditions: for IC90: measured here: IC90 growth inhibition.

This is an account of results in PubChem BioAssay AID449764 (Southern Research Specialized Biocontainment Screening …, 2010).

As a reminder, the IC50 is the midpoint of a concentration-inhibition curve. One may read the IC90 as the concentration at which the effect reaches the 90% level. Read a low IC90 as greater potency.

For `CCCCCCN=C1CC(C)(C)CC(=O)/C1=C(/O)CCC`, the IC50 is 71 µM and the IC90 was more than 100 µM.

As for `Cc1ccc(C)c(NC(=O)c2cc(-c3ccccc3)nn2-c2ccccc2)c1`, the IC50 is 34.6 µM and the IC90 stood at 55.9 µM. Taken in the same sequence, the figures for `C[C@@H]1CN([C@H](C)CO)C(=O)c2cc(NC(=O)Nc3ccc(C(F)(F)F)cc3)ccc2O[C@H]1CN(C)S(=O)(=O)c1cccs1` were 21.7 µM and 24.1 µM. On to `COc1cnc(-c2ccccn2)nc1Oc1ccc(Cl)c2ccccc12`, for which the IC50 was 0.67 µM and the IC90 came to 1.38 µM. As to `Clc1ccc(CCC(Cn2ccnc2)Sc2c(Cl)cccc2Cl)cc1` (stereo not drawn), the IC50 is 11.8 µM and the IC90 worked out at 13.3 µM. The compound `O=C(OCC(=O)N1CCN(C(=O)c2ccco2)CC1)c1cc(-c2cccc(Br)c2)nc2ccccc12` came in with an IC90 of more than 100 µM. Consider `CC1CCN(C(=S)NC(=O)c2cccs2)CC1`, for which the IC50 is 23 µM and the IC90 was 26.3 µM.

Regarding `COCc1cc(=O)[nH]c(Nc2nc3ccccc3o2)n1`, the IC50 is 26.4 µM and the IC90 was found to be 48 µM. The corresponding values for `CCC(C)NC(=O)c1c(N)n(/N=C/c2ccccn2)c2nc3ccccc3nc12` (stereo not drawn) are 13.7 µM and 22.4 µM. The corresponding values for `CCOC(=O)c1nc2sc3c(c2c(=O)[nH]1)CCC(C)C3` (stereo not drawn) are 69.8 µM and more than 100 µM. In the case of `C=CCOc1c(Br)cc(CNc2nccs2)cc1OC`, the IC50 was 31.4 µM and the IC90 was 48.2 µM. Turning to `O=[N+]([O-])c1ccc(C2Oc3ccccc3C3CC(c4ccccc4)=NN32)s1` (stereo not drawn), the IC50 was 7.13 µM and the IC90 worked out at 9.52 µM. Taken in the same sequence, the figures for `CC(c1ccccc1)N1CCN(C(=O)CCl)CC1` (stereo not drawn) were 2.75 µM and 4.33 µM. In the case of `O=C1c2ccccc2-c2onc3ccc(Oc4ccccc4)c1c23`, the IC50 is 10.3 µM and the IC90 was 14.4 µM.

As for `CCOC(=O)[C@@H]1[C@H]2COc3cc(OC)ccc3[C@H]2N2C(=O)N(c3ccc(C(F)(F)F)cc3)C(=O)[C@]12C`, the IC50 was 5.78 µM and the IC90 amounted to 6.27 µM. Taken in the same sequence, the figures for `C[C@]12C=CC(=O)C=C1CC[C@@H]1C2=CC[C@]2(C)[C@@H](C(=O)CN3CCN(c4cc(N5CCCC5)nc(N5CCCC5)n4)CC3)CC[C@@H]12` were 38.5 µM and 55.9 µM. Taken in the same sequence, the figures for `CN1/C(=C\C(=O)COC(=O)c2ccc([N+](=O)[O-])o2)C(C)(C)c2ccccc21` were 20.9 µM and 30.3 µM. Take `CCCC(/C=C/c1ccc(OC(C)=O)cc1)=C1/c2ccccc2C(=O)N1c1ccccc1`: the IC50 was 13.2 µM and the IC90 was determined as 20.9 µM. The corresponding values for `Cn1c(CNc2ccccc2O)nc2ccccc21` are 3.05 µM and 3.36 µM. The corresponding values for `CC(C)(C)c1cc(-c2nc(N)nc(N)n2)c(O)c(C(C)(C)C)c1` are 90.4 µM and 96 µM. Turning to `O=C(COc1ccccc1)NNc1nc2ccccc2s1`, the IC50 is 92.8 µM and the IC90 was more than 100 µM. Turning to `CC(C(Sc1ccccc1N)c1ccccc1)[N+](=O)[O-]` (stereo not drawn), the IC90 was more than 100 µM. In the case of `C=C(C)C1CC=C(CN2CCN(Cc3ccccc3)CC2)CC1` (stereo not drawn), the IC50 was 17.8 µM and the IC90 came out at 22 µM. In the case of `Cc1ccc(NC(=O)COC(=O)CCc2c[nH]c3ccccc23)cc1[N+](=O)[O-]`, the IC50 was 2.29 µM and the IC90 was 6.16 µM.

Regarding `Cc1cccc(N2CCN(CC(=O)Nc3nccs3)CC2)c1C`, the IC50 was 39.3 µM and the IC90 amounted to 69.2 µM. The corresponding values for `CCN(CC)c1ccc2c(Cl)c(Br)c(=O)oc2c1` are 22.6 µM and 61.6 µM. Turning to `COC(=O)[C@@H](NC(=O)c1cc(COc2cncc(Cl)c2)on1)c1ccccc1`, the IC50 was 2.93 µM and the IC90 is 3.31 µM. Consider `Cn1ccc(=Nc2ccc(NC(=O)c3ccc(N=c4ccn(C)c5ccc([N+](=O)[O-])cc45)cc3)cc2)cc1`, for which the IC50 was less than 0.2 µM and the IC90 is less than 0.2 µM. As to `CCOC(=O)c1c(NC(=O)C(NCCN(C)C)c2ccccc2)sc2c1CCCC2` (stereo not drawn), the IC50 was 9.32 µM and the IC90 came out at 12.1 µM. Taken in the same sequence, the figures for `O=C1Nc2ccc(Br)cc2C12NNc1ccccc1O2` (stereo not drawn) were 44.1 µM and 62.9 µM. Take `COC(=O)CSc1ncnc2c1sc1nc3c(cc12)COC(C)(C)C3`: the IC50 is 5.81 µM and the IC90 came out at 8.03 µM.

Regarding `COc1ccc(COc2cc(-c3cccc(OC)c3)nc3ccc(NC(=O)c4ccc(OC)cc4)cc23)cc1`, the IC50 is 24 µM and the IC90 was more than 100 µM. Take `COc1cc(C2c3cc4c(cc3C(OC3OC5COC(c6cccs6)OC5C(O)C3O)C3COC(=O)C23)OCO4)cc(OC)c1O` (stereo not drawn): the IC50 was 27.6 µM and the IC90 turned out to be 35.4 µM. For `CCC(C)(C)c1ccc(OCCCC[n+]2ccc(C)cc2)c(C(C)(C)CC)c1`, the IC50 is 12 µM and the IC90 was 13.8 µM. As to `O=C(c1ccc(Cl)cc1)N1N=C(c2ccccn2)CC1(O)C(F)(F)F` (stereo not drawn), the IC50 is 25.7 µM and the IC90 is more than 100 µM.

For the compound `O=[N+]([O-])c1cc(C=Nc2ccc3ccccc3c2)ccc1Br`, the IC50 is 34.5 µM and the IC90 amounted to 44.5 µM. Taken in the same sequence, the figures for `Nc1ccccc1C#CC(=O)c1ccccc1` were 4.11 µM and 21.7 µM.

On to `O=C(/C=C\c1cccs1)N1CCN(Cc2ccc3c(c2)OCO3)CC1`, for which the IC50 is 0.6 µM and the IC90 was found to be 1.45 µM.

Turning to `CCc1ccc(C2c3[nH]c4ccccc4c3CCN2C(=O)c2ccc(=O)n(C)n2)cc1` (stereo not drawn), the IC50 was 51.3 µM and the IC90 was 93.4 µM. As to `O=c1cc2[nH]c3ccccc3c(=O)n2nc1-c1ccccc1`, the IC50 is 10.4 µM and the IC90 is 15 µM.

For the compound `Nc1nc(Cl)cc(N2CCC(c3cc(-c4ccc(Cl)cc4Cl)n[nH]3)CC2)n1`, the concentration for half-maximal inhibition (IC50) was 25.9 µM and the IC90 turned out to be 30.1 µM. Take `NC(=O)N=Nc1c2[nH]c3ccccc3nc-2c2ccccc12`: the IC50 was 5.96 µM and the IC90 was 8.44 µM. Taken in the same sequence, the figures for `CCc1cc(OCCCCNCc2ccccc2)ccc1Cl` were 26.9 µM and 36 µM. In the case of `Cc1ccccc1NC1=C/C(=N\S(=O)(=O)c2cccs2)c2ccccc2C1=O`, the IC50 is 11.3 µM and the IC90 was 12.3 µM.

Regarding `C(=N\NC1=Nc2cccc3cccc1c23)/c1cccnc1`, the IC50 is 92.8 µM and the IC90 is more than 100 µM.

Turning to `CCOC(=O)Oc1c(OC)cc(C(=O)O[C@@H]2C[C@@H]3CN4CCc5c([nH]c6cc(OC)ccc56)[C@H]4C[C@@H]3[C@H](C(=O)OC)[C@H]2OC)cc1OC`, the IC50 was 26.5 µM and the IC90 worked out at 39.1 µM.

Regarding `COc1cc(NC(=O)c2ccc(COc3ccccc3Br)o2)cc(OC)c1OC`, the IC50 is 67 µM and the IC90 is more than 100 µM.

For the compound `N/C(=N\OC(=O)Nc1ccc(Cl)c(Cl)c1)c1ncc(C(F)(F)F)cc1Cl`, the IC50 is 28.9 µM and the IC90 stood at 35.7 µM. The corresponding values for `Cc1cc(N/N=C/c2ccccc2[N+](=O)[O-])nc(-n2nc(C)cc2C)n1` are 3.42 µM and 5.14 µM. Consider `CCOC(=O)c1cc(-c2csc(Nc3c(C)cc(C)cc3C)n2)on1`, for which the IC50 is 1.09 µM and the IC90 amounted to 1.62 µM.
